Molecular target: T1, Human complement C1s enzyme (Homo sapiens, UniProt P09871)
T1 construct: purified from human serum, Complement Technology, Inc; purchased Complement Technology, Inc; host or cells: human serum (plasma-derived native protein)
T1 sequence (P09871 438-688 limits assumed): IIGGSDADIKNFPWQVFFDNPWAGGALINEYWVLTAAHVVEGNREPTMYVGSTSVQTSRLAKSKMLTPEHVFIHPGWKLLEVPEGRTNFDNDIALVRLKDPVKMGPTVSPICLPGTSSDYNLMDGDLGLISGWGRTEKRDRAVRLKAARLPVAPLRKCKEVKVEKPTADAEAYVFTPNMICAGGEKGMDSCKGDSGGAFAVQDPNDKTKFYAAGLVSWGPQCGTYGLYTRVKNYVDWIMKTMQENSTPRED
T1 sequence (P09871 16-437 partner limits assumed): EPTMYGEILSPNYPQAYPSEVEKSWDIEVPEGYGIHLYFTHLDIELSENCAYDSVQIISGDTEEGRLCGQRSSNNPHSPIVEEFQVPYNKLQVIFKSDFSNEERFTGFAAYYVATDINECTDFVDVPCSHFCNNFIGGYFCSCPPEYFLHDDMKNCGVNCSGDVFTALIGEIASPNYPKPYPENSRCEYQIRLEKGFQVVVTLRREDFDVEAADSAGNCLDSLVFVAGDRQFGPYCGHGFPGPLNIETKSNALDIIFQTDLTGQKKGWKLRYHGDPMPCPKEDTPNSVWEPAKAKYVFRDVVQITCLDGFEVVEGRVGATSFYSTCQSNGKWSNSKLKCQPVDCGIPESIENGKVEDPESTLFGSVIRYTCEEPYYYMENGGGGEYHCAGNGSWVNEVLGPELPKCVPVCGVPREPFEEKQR
Experiment: Human C1s enzyme assay
Type: biochemical
Details: human complement C1s enzyme 1.16 nM, substrate Z-L-Lys-SBzl, A405; read-out: IC50 (Stars)
Procedure: The […] values of the compounds of Table 1 were determined with the human C1s enzyme assay described below. Other standard complement assays are also available.
Human complement C1s enzyme (purified from human serum, Complement Technology, Inc.) at 1.16 nM final concentration was incubated with test compound at various concentrations for 5 min at room temperature in 50 mM Tris, 1 M NaCl, pH 7.5. A synthetic substrate Z-L-Lys-SBzl and DTNB (Ellman's reagent) were added to final concentrations of 100 μM each. Absorbance at 405 nm (A405) was recorded at 30 second intervals for […] using a microplate spectrophotometer. IC values were calculated by nonlinear regression of complement C1s reaction rates as a function of test compound concentration.
[…]; ND indicates a compound for which the IC50 value is not determined.

Compound | IC50
O=C(CN1C(=O)[C@@H](NCCCc2ccccc2)CC[C@H]1c1ccccc1)NCc1cc2cnccc2[nH]1 (relative stereo) [Compound 489, N-((1H-Pyrrolo[3,2-c]pyridine-2-yl)methyl)-2-((3S*,6S*)-2-oxo-6-phenyl-3-((3-phenylpropyl)amino)piperidin-1-yl)acetamide] | > 1000 nM
C[C@@H](Nc1cnc(-c2ccccc2F)n([C@@H](C)C(=O)NCc2cc3cnccc3[nH]2)c1=O)c1ccc2oc3ccccc3c2c1 (single isomer, unassigned) [Compound 363, (S*)—N-((1H-pyrrolo[3,2-c]pyridine-2-yl)methyl)-2-(5-(((R)-1-(dibenzo[b,d]furan-2-yl)ethyl)amino)-2-(2-fluorophenyl)-6-oxopyrimidin-1(6H)-yl)propenamide] | > 1000 nM
C[C@H](C(=O)NCc1cc2cnccc2[nH]1)n1c(-c2ccccc2F)ncc(N[C@H](C)c2ccc3oc4ccccc4c3c2)c1=O (single isomer, unassigned) [Compound 364, (R*)—N-((1H-pyrrolo[3,2-c]pyridine-2-yl)methyl)-2-(5-(((R)-1-(dibenzo[b,d]furan-2-yl)ethyl)amino)-2-(2-fluorophenyl)-6-oxopyrimidin-1(6H)-yl)propenamide] | > 1000 nM
O=C(Cn1c(-c2ccccc2F)ncc(N[C@H](CF)c2ccc3oc4ccccc4c3c2)c1=O)NCc1cc2cnccc2[nH]1 (single isomer, unassigned) [Compound 375, (S*)—N-((1H-pyrrolo[3,2-c]pyridine-2-yl)methyl)-2-(5-((1-(dibenzo[b,d]furan-2-yl)-2-fluoroethyl)amino)-2-(2-fluorophenyl)-6-oxopyrimidin-1(6H)-yl)acetamide] | < 100 nM
O=C(Cn1c(N2CCCCC2)ncc(NC(CF)c2ccc3oc4ccccc4c3c2)c1=O)NCc1cc2cnccc2[nH]1 (single isomer, unassigned) [Compound 441] | < 100 nM
O=C(Cn1c(-c2ccccc2)ncc(NCCCc2ccccc2)c1=O)NCc1cc2cnccc2[nH]1 [Compound 1, N-((1H-pyrrolo[3,2-c]pyridin-2-yl)methyl)-2-(6-oxo-2-phen-yl-5-((3-phenylpropyl)amino)-pyrimidin-1(6H)-yl)acetamide] | < 100 nM
O=C(Cn1c(-c2ccccc2)ncc(NCCCCc2ccccc2)c1=O)NCc1cc2cnccc2[nH]1 [Compound 2, N-((1H-pyrrolo[3,2-c]pyridin-2-yl)methyl)-2-(6-oxo-2-phen-yl-5-((4-phenylbutyl)amino)-pyrimidin-1(6H)-yl)acetamide] | < 100 nM
O=C(Cn1c(-c2ccccc2)ncc(NCCCCCc2ccccc2)c1=O)NCc1cc2cnccc2[nH]1 [Compound 3, N-((1H-pyrrolo[3,2-c]pyridin-2-yl)methyl)-2-(6-oxo-2-phen-yl-5-((5-phenylpentyl)amino)-pyrimidin-1(6H)-yl)acetamide] | < 100 nM
O=C(Cn1c(-c2ccccc2)ncc(NC(=O)CCCOc2ccccc2)c1=O)NCc1cc2cnccc2[nH]1 [Compound 4, N-(1-(2-(((1H-pyrrolo[3,2-c]pyridin-2-yl)methyl)amino)-2-oxoethyl)-6-oxo-2-phenyl-1,6-dihydropyrimidin-5-yl)-4-phen-oxybutanamide] | < 100 nM
O=C(Cn1c(-c2ccccc2)ncc(NC(=O)CCc2ccccc2)c1=O)NCc1cc2cnccc2[nH]1 [Compound 5, N-(1-(2-(((1H-pyrrolo[3,2-c]pyridin-2-yl)methyl)amino)-2-oxoethyl)-6-oxo-2-phenyl-1,6-dihydropyrimidin-5-yl)-3-phenylpropanamide] | < 100 nM
O=C(Cn1c(-c2ccccc2)ncc(NCCOc2ccccc2)c1=O)NCc1cc2cnccc2[nH]1 [Compound 6, N-((1H-pyrrolo[3,2-c]pyridin-2-yl)methyl)-2-(6-oxo-5-((2-phenoxyethyl)amino)-2-phen-ylpyrimidin-1(6H)-yl)aceamide] | < 100 nM
O=C(Cn1c(-c2ccccc2)ncc(NCCCOc2ccccc2)c1=O)NCc1cc2cnccc2[nH]1 [Compound 7, N-((1H-pyrrolo[3,2-c]pyridin-2-yl)methyl)-2-(6-oxo-5-((3-phenoxypropyl)amino)-2-phenylpyrimidin-1(6H)-yl)-acetamide] | < 100 nM
O=C(Cn1c(-c2ccccc2)ncc(NC(=O)c2ccc(Oc3ccccc3)cc2)c1=O)NCc1cc2cnccc2[nH]1 [Compound 8, N-(1-(2-(((1H-pyrrolo[3,2-c]pyridin-2-yl)methyl)amino)-2-oxoethyl)-6-oxo-2-phenyl-1,6-dihydropyrimidin-5-yl)-4-phenoxybenzamide] | < 100 nM
C[C@H](NC(=O)Cn1c(-c2ccccc2)ncc(NCCCc2ccccc2)c1=O)c1cc2cnccc2[nH]1 [Compound 9, (S)—N-(1-(1H-pyrrolo[3,2-c]pyridin-2-yl)ethyl)-2-(6-oxo-2-phenyl-5-((3-phenylpropyl)amino)pyrimidin-1(6H)-yl)acetamide] | > 1000 nM
C[C@@H](NC(=O)Cn1c(-c2ccccc2)ncc(NCCCc2ccccc2)c1=O)c1cc2cnccc2[nH]1 [Compound 10, (R)-N-(1-(1H-pyrrolo[3,2-c]pyridin-2-yl)ethyl)-2-(6-oxo-2-phenyl-5-((3-phenylpropyl)-amino)pyrimidin-1(6H)-yl)-acetamide] | < 100 nM
O=C(Cn1c(-c2ccccc2)ncc(NCCCCOc2ccccc2)c1=O)NCc1cc2cnccc2[nH]1 [Compound 11, N-((1H-pyrrolo[3,2-c]pyridin-2-yl)methyl)-2-(6-oxo-5-((4-phenoxybutyl)amino)-2-phenylpyrimidin-1(6H)-yl)acetamide] | < 100 nM
C[C@@H](NC(=O)Cn1c(-c2ccccc2)cnc(NCCCc2ccccc2)c1=O)c1cc2cnccc2[nH]1 [Compound 12, (R)-N-(1-(1H-pyrrolo[3,2-c]pyridin-2-yl)ethyl)-2-(2-oxo-6-phenyl-3-((3-phenylpropyl)-amino)pyrazin-1(2H)-yl)-acetamide] | 100 to 1000 nM
O=C(Cn1c(-c2ccccc2)cnc(NCCCc2ccccc2)c1=O)N[C@H](CO)c1cc2cnccc2[nH]1 [Compound 13, (S)-N-(2-hydroxy-1-(1H-pyr-rolo[3,2-c]pyridin-2-yl)ethyl)-2-(2-oxo-6-phenyl-3-((3-phen-ylpropyl)amino)pyrazin-1(2H)-yl)acetamide] | 100 to 1000 nM
O=C(Cn1c(-c2ccccc2)cnc(NCCCc2ccccc2)c1=O)N[C@@H](CO)c1cc2cnccc2[nH]1 [Compound 14, (R)-N-(2-hydroxy-1-(1H-pyr-rolo[3,2-c]pyridin-2-yl)ethyl)-2-(2-oxo-6-phenyl-3-((3-phen-ylpropyl)amino)pyrazin-1(2H)-yl)acetamide] | > 1000 nM
O=C(Cn1c(-c2ccccc2)ncc(NCCCc2ccccc2)c1=O)N[C@H](CO)c1cc2cnccc2[nH]1 [Compound 15, (S)-N-(2-hydroxy-1-(1H-pyr-rolo[3,2-c]pyridin-2-yl)ethyl)-2-(6-oxo-2-phenyl-5-((3-phen-ylpropyl)amino)pyrimidin-1(6H)-yl)acetamide] | > 1000 nM
O=C(Cn1c(-c2ccccc2)ncc(NCCCc2ccccc2)c1=O)N[C@@H](CO)c1cc2cnccc2[nH]1 [Compound 16, (R)-N-(2-hydroxy-1-(1H-pyr-rolo[3,2-c]pyridin-2-yl)ethyl)-2-(6-oxo-2-phenyl-5-((3-phen-ylpropyl)amino)pyrimidin-1(6H)-yl)acetamide] | > 1000 nM
O=C(Cn1c(-c2ccccc2)cnc(NCCCc2ccccc2)c1=O)NCc1cc2cnccc2[nH]1 [Compound 17, N-((1H-pyrrolo[3,2-c]pyridin-2-yl)methyl)-2-(2-oxo-6-phen-yl-3-((3-phenylpropyl)amino)-pyrazin-1(2H)-yl)acetamide] | < 100 nM
O=C(Cn1c(-c2ccccc2)ncc(NC(=O)CCCc2ccc(Oc3ccccc3)cc2)c1=O)NCc1cc2cnccc2[nH]1 [Compound 18, N-(1-(2-(((1H-pyrrolo[3,2-c]pyridin-2-yl)methyl)amino)-2-oxoethyl)-6-oxo-2-phenyl-1,6-dihydropyrimidin-5-yl)-4-(4-phenoxyphenyl)butanamide] | < 100 nM
O=C(Cn1c(-c2ccccc2)ncc(NCc2ccc(-c3ccccc3)cc2)c1=O)NCc1cc2cnccc2[nH]1 [Compound 19, N-((1H-pyrrolo[3,2-c]pyridin-2-yl)methyl)-2-(5-(([1,1′-biphenyl]-4-ylmethyl)amino)-6-oxo-2-phenylpyrimidin-1(6H)-yl)acetamide] | < 100 nM
O=C(Cn1c(-c2ccccc2)ncc(NCc2ccc(Oc3ccccc3)cc2)c1=O)NCc1cc2cnccc2[nH]1 [Compound 20, N-((1H-pyrrolo[3,2-c]pyridin-2-yl)methyl)-2-(6-oxo-5-((4-phenoxybenzyl)amino)-2-phenylpyrimidin-1(6H)-yl)-acetamide] | < 100 nM

Source: patent US20260184707A1, “PHARMACEUTICAL COMPOUNDS FOR THE TREATMENT OF COMPLEMENT MEDIATED DISORDERS” (ALEXION PHARMACEUTICALS, INC., priority 2022, published 2026)
